Key:
Type in all cases: cell-based
[1] = test system: long-chain acyl-CoA synthetase (ACSL); assay: Acyl-CoA synthetase activity in cardiac myoblasts; conditions: ApoO cells treated with 5 μM triacsin C
Excerpt: After ethical committee approval, all patients in this study gave written consent for sample collection and molecular analysis prior to inclusion. Patients were carefully selected by physicians from the Department of Cardiology, Toulouse University Hospital, prior to coronary by-pass surgery. Bioinformatics. Microarray expression data from human heart samples were downloaded from the GEO repository (GSE1145). This series consisted of 107 myocardial samples collected from patients undergoing cardiac transplantation whose failure arises from different etiologies (e.g. idiopathic dilated cardiomyopathy, ischemic cardiomyopathy, valvular cardiomyopathy, and hypertrophic cardiomyopathy) and from “normal” organ donors whose hearts cannot be used for transplants. Arrays were intensity normalized and hierarchical clustering (average group linkage, Pearson correlation, threshold r=0.8) was applied to identify groups of co-expressed genes. […] All ApoO sequences within the expression vectors were verified by DNA double strand sequencing using ABI PRISM®BigDye™ Terminator version 3.1 Ready reaction cycle sequencing kit (Life Technologies SAS, Villebon sur Yvette) and loaded on an ABI 3130XL DNA sequencing instrument (Life Technologies SAS, Villebon sur Yvette). […]

[2] = test system: H9c2 cardiac myoblasts; assay: Measurement of O2 consumption (Oroboros Oxygraph-2k) in cardiac myoblasts; conditions: for oxygen consumption: cells treated with 1 μM antimycin or 1.5 μg/ml oligomycin (FIG. 4B)
Excerpt: After ethical committee approval, all patients in this study gave written consent for sample collection and molecular analysis prior to inclusion. Patients were carefully selected by physicians from the Department of Cardiology, Toulouse University Hospital, prior to coronary by-pass surgery. Bioinformatics. Microarray expression data from human heart samples were downloaded from the GEO repository (GSE1145). This series consisted of 107 myocardial samples collected from patients undergoing cardiac transplantation whose failure arises from different etiologies (e.g. idiopathic dilated cardiomyopathy, ischemic cardiomyopathy, valvular cardiomyopathy, and hypertrophic cardiomyopathy) and from “normal” organ donors whose hearts cannot be used for transplants. Arrays were intensity normalized and hierarchical clustering (average group linkage, Pearson correlation, threshold r=0.8) was applied to identify groups of co-expressed genes. ApoO expression levels were plotted for the 107 human hearts tested and used to define relevant molecular pathways using both Toppgene and Ingenuity Pathway Analysis (Ingenuity systems, Redwood City, Calif., USA). ApoO subcellular localization was predicted using Mitopred, mitoprot and YLoc. Animals: All animal Studies followed the INSERM Institute Animal Facility guidelines and were approved by the animal care committees of the INSERM I2MC UMR 1048. All animal procedures were performed according to the guidelines of the French Ministry of Agriculture. Animals were housed at the Toulouse I2MC animal facility in a room lit 12 h per day (6 AM-6 PM) at an ambient temperature of 22+/−1° C. Construction of ApoO Expression Vectors To overexpress human ApoO (pTT-ApoO), the ApoO coding sequence was amplified using primers hApoO5BamPTT (SEQ ID NO: 2) and hApoO3BamPTT (SEQ ID NO: 3) and cloned into the BamH1 site of pTT expression vector. pSNAP-ApoO was generated by PCR amplification of pTT-ApoO using primers SnapApoEcorV-F (SEQ ID NO: 4) and SnapApoEcorV-R (SEQ ID NO: 5) and cloned into the EcoRV site of pSNAP-Tag® (Ozyme, Saint-Quentin-en-Yvelines, France). pGEX2T-ApoO was constructed by PCR amplification of pTT-ApoO using hApoOpGEX1FBam (SEQ ID NO: 6) and hApoOpGEX1RSma (SEQ ID NO: 7) and cloned into the Bam HI/Sma I site of pGEX2T (Promega, Charbonnières-les-Bains). All primers used in this work were synthesized by Eurogentec France (Angers). All restriction enzymes used were from New England Biolabs (Ozyme, Saint-Quentin-en-Yvelines). All ApoO sequences within the expression vectors were verified by DNA double strand sequencing using ABI PRISM®BigDye™ Terminator version 3.1 Ready reaction cycle sequencing kit (Life Technologies SAS, Villebon sur Yvette) and loaded on an ABI 3130XL DNA sequencing instrument (Life Technologies SAS, Villebon sur Yvette). Cell Culture and Tranfection of H9C2 Cardic Myoblasts H9c2 were obtained from the European Collection of Cell Cultures (Salisbury, England). H9c2 cells were cultured in Dulbecco's modified Eagle medium (Life Technologies SAS, Villebon sur Yvette) adjusted to contain 1.5 g/liter sodium bicarbonate and supplemented with antibiotic-antimycotic solution (Life Technologies SAS, Villebon sur Yvette) and 10% fetal bovine serum (FBS, AbCys s.a., Paris). Cells were plated on 10-cm diameter tissue culture dish and grown in a 5% CO2 incubator at 37° C. with saturating humidity with medium changes every 2 days. […]

[3] = test system: H9c2 cardiac myoblasts; assay: Lipid profiling (FAME, diglycerides, triglycerides, BODIPY-palmitate) in cardiac myoblasts; conditions: ApoO cells treated with both palmitate and oleate (FIG. 11a-b)
Excerpt: (§1) After ethical committee approval, all patients in this study gave written consent for sample collection and molecular analysis prior to inclusion. Patients were carefully selected by physicians from the Department of Cardiology, Toulouse University Hospital, prior to coronary by-pass surgery. Bioinformatics. Microarray expression data from human heart samples were downloaded from the GEO repository (GSE1145). This series consisted of 107 myocardial samples collected from patients undergoing cardiac transplantation whose failure arises from different etiologies (e.g. idiopathic dilated cardiomyopathy, ischemic cardiomyopathy, valvular cardiomyopathy, and hypertrophic cardiomyopathy) and from “normal” organ donors whose hearts cannot be used for transplants. Arrays were intensity normalized and hierarchical clustering (average group linkage, Pearson correlation, threshold r=0.8) was applied to identify groups of co-expressed genes. ApoO expression levels were plotted for the 107 human hearts tested and used to define relevant molecular pathways using both Toppgene and Ingenuity Pathway Analysis (Ingenuity systems, Redwood City, Calif., USA). ApoO subcellular localization was predicted using Mitopred, mitoprot and YLoc. Animals: All animal Studies followed the INSERM Institute Animal Facility guidelines and were approved by the animal care committees of the INSERM I2MC UMR 1048. All animal procedures were performed according to the guidelines of the French Ministry of Agriculture. Animals were housed at the Toulouse I2MC animal facility in a room lit 12 h per day (6 AM-6 PM) at an ambient temperature of 22+/−1° C. […] All ApoO sequences within the expression vectors were verified by DNA double strand sequencing using ABI PRISM®BigDye™ Terminator version 3.1 Ready reaction cycle sequencing kit (Life Technologies SAS, Villebon sur Yvette) and loaded on an ABI 3130XL DNA sequencing instrument (Life Technologies SAS, Villebon sur Yvette). […]

[4] = test system: Caspase-3; assay: Caspase-3 enzymatic activity in H9c2 cardiac myoblasts; conditions: ApoO cells treated with both palmitate and oleate (FIG. 11c)
Excerpt: as §1

CCC/C=C/C/C=C/C=C/C=N/NN=O [triacsin C, reference compound]
ApoO-induced increase of ACSL activity [1]: significantly reversed

antimycin
oxygen consumption [2]: almost completely inhibited

N#CC(C#N)=NNc1cccc(Cl)c1 [CCCP, carbonyl cyanide m-chlorophenyl hydrazone]
increase in oxygen consumption ([2]; ApoO cells, addition of uncoupler 2 μM CCCP (FIG. 4B)): 2 fold

CCCCCCCC/C=C\CCCCCCCC(=O)O [oleate, reference compound]
decrease in diglyceride/triglyceride ratio [3]: 12 fold
decrease in Caspase-3 activity [4]: 2 fold

CC[C@H]1/C=C/C=C/C[C@@H](C)[C@H](O)[C@@](C)(O)C(=O)[C@@H](C)[C@H](O)[C@@H](C)C(=O)[C@@H](C)[C@H](O)[C@@H](C)/C=C/C(=O)O[C@@H]2[C@H](C)[C@H](CC1)O[C@]1(CC[C@H](C)[C@H](C[C@@H](C)O)O1)[C@H]2C [oligomycin]
oxygen consumption [2]: partly inhibited

Reference: US10272135B2, “Apolipoprotein O and fragments thereof for inducing apoptosis in a cancerous cell” (INSERM (INSTITUT NATIONAL DE LA SANTÉ ET DE LA RECHERCHE …, priority 2014, dated 2019)
